The results in this text go back to publication PMC3009740 (PLoS ONE, 2010).

One experiment concerns CHO hM1 cells. As to the kind of experiment: Protein content (method of Bradford) of CHO hM1 cells after pretreatment. In kind it is cell-based, Chinese hamster. An excerpt: In order to account for these variances, the method of Bradford was used to quantify changes in protein content in CHO hM1 cells. […] This is in contrast to the complete inhibition of binding observed prior to prolonged waiting.

Experiment [1] deals with T1, human M1 muscarinic acetylcholine receptor (Homo sapiens, UniProt P11229).
T1 sequence (P11229 1-460): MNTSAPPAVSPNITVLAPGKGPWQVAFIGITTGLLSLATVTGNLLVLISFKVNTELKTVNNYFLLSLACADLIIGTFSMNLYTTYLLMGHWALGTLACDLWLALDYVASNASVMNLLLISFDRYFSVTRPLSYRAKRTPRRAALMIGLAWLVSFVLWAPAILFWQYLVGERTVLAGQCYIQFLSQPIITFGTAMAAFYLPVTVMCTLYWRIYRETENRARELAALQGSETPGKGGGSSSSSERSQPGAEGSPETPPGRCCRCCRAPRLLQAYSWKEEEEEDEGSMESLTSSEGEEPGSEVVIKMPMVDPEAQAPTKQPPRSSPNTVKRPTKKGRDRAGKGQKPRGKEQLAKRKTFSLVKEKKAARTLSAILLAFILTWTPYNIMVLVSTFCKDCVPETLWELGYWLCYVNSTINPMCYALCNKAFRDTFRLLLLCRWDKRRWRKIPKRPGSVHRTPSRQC
As to the kind of experiment: cell-based. On the procedure: (§1) Labeled cells were harvested by trypsinization, centrifuged, and washed three times in HEPES buffer to remove unincorporated myo-[^3H]inositol. Labeled cells were distributed to assay tubes (500,000 cells/tube), and allowed to incubate for 15 min at 37°C. […] In all cases, the reaction was allowed to proceed in the presence of 10 mM LiCl for 1 h at 37°C after the addition of agonist before being stopped with chloroform/methanol (2∶1) and centrifuged (450×g; 15 min).
Alternatively, cells were grown in 24-well plates and loaded with myo-[^3H]inositol as described above. […] In all cases, the reaction was stopped with 0.3 M HClO4, neutralized with 0.15 M K2CO3, and samples were centrifuged (1500×g; 15 min).
(§2) For all experiments, [^14C]inositol-1-phosphate was added to each sample as an internal recovery standard. Total inositol phosphates were separated by ion exchange chromatography (AG1-X8 resin). The amount of radioactivity (disintegrations per minute) in each sample was determined by liquid scintillation spectrometry and adjusted for ^14C recovery.
(§3) In functional assays of PI hydrolysis, raw data were corrected for ^14C recovery to account for individual column differences in efficiency. Individual concentration-response curve data were fitted to a four-parameter logistic function using Prism to obtain estimates of EC50 (half-effective concentration) and Emax.

In experiment [2] the target is T2, rat M1 wild-type muscarinic acetylcholine receptor (Rattus norvegicus, UniProt P08482).
T2 sequence (P08482 1-460): T1 sequence (P11229 1-460) with A5V, T254S, P309S, R320K, A337G, I413V

In experiment [3] the target is T3, rat M1 mutant^123 muscarinic acetylcholine receptor (Rattus norvegicus, UniProt P08482).
T3 sequence (P08482 1-460): T1 sequence (P11229 1-460) with A5V, T254S, P309S, R320K, A337G, I413V

Experiment [4] concerns the target T3, rat M1 mutant^123 muscarinic acetylcholine receptor. The conditions noted are these: mutant^123 cells stimulated with agonist (data not shown). On the procedure: as §1, §2, §3
Experiment [5] has as its target T2, rat M1 wild-type muscarinic acetylcholine receptor. The following applies: naïve CHO rM1 cells. On the procedure:
as §1, §2, §3

Experiment [6] has as its target T3, rat M1 mutant^123 muscarinic acetylcholine receptor. The conditions noted are these: washout, control 2700±300.
The target of experiment [7] is T2, rat M1 wild-type muscarinic acetylcholine receptor. The following applies: washout, control 2200±90.
[8] abbreviates: 1 h pretreatment, washout, 23 h wait.

Substitutions are numbered along the chain they refer to. Like-named read-outs stand apart in the source and are kept apart here.

As to `C[N+](C)(C)CCOC(N)=O` [carbachol], the “maximal decrease in protein content” value with CHO hM1 cells (24-h pretreatment, at 10 mM carbachol) worked out at 26±6.6%.

With `O=C1CCCN1CC#CCN1CCCC1` [oxotremorine], in experiment [1], the “Emax, maximal accumulation of inositol phosphates” value was 10000±800 dpm and the “increase in the EC50 of agonist-stimulated PI hydrolysis” value turned out to be 32 fold. For the same molecule, in experiment [1] (pEC50 of PI hydrolysis), the EC50 (commonly the concentration that produces a half-maximal response) is 200 nM.

Regarding `CCCCCCOc1nsnc1C1=CCCN(C)C1` [xanomeline, 3-[3-hexyloxy-1,2,5-thiadiazo-4-yl]-1,2,5,6-tetrahydro-1-methylpyridine], the “Imax, maximal percentage inhibition of [3H]NMS binding” value came out at 95±0.5% in experiment [2] (1 h pretreatment, washout); 99±2.3% in experiment [2] (setting [8]); 97±0.5% in experiment [2] (24 h pretreatment, washout); 99±0.6% in experiment [2] (Control: naïve cells); 96±0.7% in experiment [3] (1 h pretreatment, washout); 60±7.4 % in experiment [3] (setting [8]). For the same molecule, the “Imax, maximal percentage inhibition of [3H]NMS binding” value in experiment [3] (24 h pretreatment, washout) is reported as 90±2.9%; in experiment [3] (Control: naïve cells), 99±0.5%. Moreover, the “percentage of high-affinity binding sites” value in experiment [2] (setting [8]) was determined as 74±1.1%; in experiment [2] (24 h pretreatment, washout), 47±7.7%. The “maximal decrease in protein content” value in the experiment on CHO hM1 cells (1-h pretreatment followed by washing and prolonged waiting, at 10 µM xanomeline) was 32±2%; in the experiment with CHO hM1 cells (24-h pretreatment, at 10 µM xanomeline) it was 65±7%. In experiment [4], the PI response result is “did not produce a significant PI response”. In addition, the “Emax, maximal response” value in experiment [5] was found to be 18000±5500 dpm. The “Bmax, maximal cell-surface receptor density” value is listed as 3400±610 dpm/100,000 cells in experiment [6] (3 µM xanomeline 1 h, 23 h wait); 3000±380 dpm/100,000 cells in experiment [6] (3 µM xanomeline 1 h); 3600±320 dpm/100,000 cells in experiment [6] (3 µM xanomeline 24 h); 1100±150 dpm/100,000 cells in experiment [7] (3 µM xanomeline 1 h, 23 h wait); 2600±430 dpm/100,000 cells in experiment [7] (3 µM xanomeline 1 h); 1300±150 dpm/100,000 cells in experiment [7] (3 µM xanomeline 24 h).
